Laboratory results: US4359466A, “Guanidine compounds” (Smith Kline & French Laboratories Limited, priority 1980, dated 1982)

Test system: histamine H2 -receptors
Assay: inhibition of histamine-stimulated secretion of gastric acid from the lumen-perfused stomachs of rats anaesthetised with urethane
Format: in vivo
Details: i.v., lumen-perfused stomach of urethane-anaesthetised rats

N=C(N)Nc1nc(CSCCNc2[nH]ccc2[N+](=O)[O-])cs1 [Example 1, 2-[2-(2-Guanidino-4-thiazolylmethylthio)ethylamino]-3-nitropyrrole]
dose causing 50% inhibition of maximal acid secretion: less than 0.1 micromole kg^-1
